According to publication PMC12621043, “Un-LOK-ing a New Approach for Conformational Selective Targeting of STK10 (LOK)” (ACS Medicinal Chemistry Letters, 2025):

Experiments:
Test in all cases: DSF Tm panel
Assay type in all cases: binding
Settings in all cases: 10 μM compound
BRAFA = target: T1, BRAFA (Homo sapiens, UniProt P15056)
T1 construct: purchased in-house DSF kinase panel (SGC-style construct names; the trailing letter is the construct ID)

DAPK1 (DAPK1A) = target: T2, DAPK1 (DAPK1A) (Homo sapiens, UniProt P53355)
T2 construct: purchased in-house DSF kinase panel (SGC-style construct names; the trailing letter is the construct ID)
T2 sequence (P53355 1-285): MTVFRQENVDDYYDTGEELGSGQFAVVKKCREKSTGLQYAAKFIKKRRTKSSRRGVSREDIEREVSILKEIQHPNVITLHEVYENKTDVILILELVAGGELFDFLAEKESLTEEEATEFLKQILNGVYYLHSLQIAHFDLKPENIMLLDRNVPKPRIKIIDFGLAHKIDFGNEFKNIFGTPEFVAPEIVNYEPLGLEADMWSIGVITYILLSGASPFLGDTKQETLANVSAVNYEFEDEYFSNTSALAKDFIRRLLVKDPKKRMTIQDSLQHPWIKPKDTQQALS

DYRK1AA = target: T3, DYRK1AA (Homo sapiens, UniProt Q13627)
T3 construct: purchased in-house DSF kinase panel (SGC-style construct names; the trailing letter is the construct ID)

DAPK3 (DAPK3A) = target: T4, DAPK3 (DAPK3A) (Homo sapiens, UniProt O43293)
T4 construct: purchased in-house DSF kinase panel (SGC-style construct names; the trailing letter is the construct ID)
T4 sequence (O43293 whole entry): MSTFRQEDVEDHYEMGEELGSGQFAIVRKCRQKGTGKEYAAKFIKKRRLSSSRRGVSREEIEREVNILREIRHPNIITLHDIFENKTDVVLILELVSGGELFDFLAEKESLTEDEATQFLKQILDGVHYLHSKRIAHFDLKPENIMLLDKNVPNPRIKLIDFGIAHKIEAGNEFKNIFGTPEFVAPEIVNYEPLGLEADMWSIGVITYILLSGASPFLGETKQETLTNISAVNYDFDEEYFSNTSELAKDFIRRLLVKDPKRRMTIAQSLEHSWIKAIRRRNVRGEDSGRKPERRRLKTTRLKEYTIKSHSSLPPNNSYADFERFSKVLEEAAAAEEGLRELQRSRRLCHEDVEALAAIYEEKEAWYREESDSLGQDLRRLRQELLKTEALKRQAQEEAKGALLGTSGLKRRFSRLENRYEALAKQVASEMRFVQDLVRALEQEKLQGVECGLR

CAMK4A = target: T5, CAMK4A (Homo sapiens, UniProt Q16566)
T5 construct: purchased in-house DSF kinase panel (SGC-style construct names; the trailing letter is the construct ID)
T5 sequence (Q16566 1-473): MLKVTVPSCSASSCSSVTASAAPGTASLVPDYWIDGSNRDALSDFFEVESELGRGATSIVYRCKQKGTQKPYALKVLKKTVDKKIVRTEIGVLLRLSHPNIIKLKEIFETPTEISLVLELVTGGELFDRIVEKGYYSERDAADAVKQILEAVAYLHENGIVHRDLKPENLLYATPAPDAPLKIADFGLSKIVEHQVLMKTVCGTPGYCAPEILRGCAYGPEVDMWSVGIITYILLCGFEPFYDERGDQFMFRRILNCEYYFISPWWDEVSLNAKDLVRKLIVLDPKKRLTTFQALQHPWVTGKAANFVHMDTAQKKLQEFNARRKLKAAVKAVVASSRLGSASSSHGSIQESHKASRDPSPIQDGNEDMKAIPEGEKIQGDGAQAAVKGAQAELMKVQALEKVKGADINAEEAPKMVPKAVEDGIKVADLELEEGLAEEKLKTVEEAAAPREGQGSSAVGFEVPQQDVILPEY

PIM3A = target: T6, PIM3A (Homo sapiens, UniProt Q86V86)
T6 construct: purchased in-house DSF kinase panel (SGC-style construct names; the trailing letter is the construct ID)

BMX (BMXA) = target: T7, BMX (BMXA) (Homo sapiens, UniProt P51813)
T7 construct: purchased in-house DSF kinase panel (SGC-style construct names; the trailing letter is the construct ID)
T7 sequence (P51813 411-675): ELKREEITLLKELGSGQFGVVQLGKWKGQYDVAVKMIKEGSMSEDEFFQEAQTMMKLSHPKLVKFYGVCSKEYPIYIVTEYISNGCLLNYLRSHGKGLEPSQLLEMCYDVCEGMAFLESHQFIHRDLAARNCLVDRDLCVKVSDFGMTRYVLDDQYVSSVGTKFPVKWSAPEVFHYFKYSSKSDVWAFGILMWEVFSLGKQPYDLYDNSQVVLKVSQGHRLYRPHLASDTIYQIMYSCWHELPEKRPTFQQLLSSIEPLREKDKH

PAK1A = target: T8, PAK1A (Homo sapiens, UniProt Q13153)
T8 construct: purchased in-house DSF kinase panel (SGC-style construct names; the trailing letter is the construct ID)
T8 sequence (Q13153 249-545): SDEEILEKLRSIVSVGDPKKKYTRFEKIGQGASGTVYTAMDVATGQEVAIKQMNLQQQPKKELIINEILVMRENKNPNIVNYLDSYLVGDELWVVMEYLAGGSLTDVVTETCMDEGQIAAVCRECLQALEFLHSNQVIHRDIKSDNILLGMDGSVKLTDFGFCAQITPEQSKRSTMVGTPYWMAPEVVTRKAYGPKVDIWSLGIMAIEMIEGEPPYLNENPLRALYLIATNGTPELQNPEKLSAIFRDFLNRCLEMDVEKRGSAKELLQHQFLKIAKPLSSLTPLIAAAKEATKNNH

GSK3BB = target: T9, GSK3BB (Homo sapiens, UniProt P49841)
T9 construct: purchased in-house DSF kinase panel (SGC-style construct names; the trailing letter is the construct ID)
T9 sequence (P49841 35-386): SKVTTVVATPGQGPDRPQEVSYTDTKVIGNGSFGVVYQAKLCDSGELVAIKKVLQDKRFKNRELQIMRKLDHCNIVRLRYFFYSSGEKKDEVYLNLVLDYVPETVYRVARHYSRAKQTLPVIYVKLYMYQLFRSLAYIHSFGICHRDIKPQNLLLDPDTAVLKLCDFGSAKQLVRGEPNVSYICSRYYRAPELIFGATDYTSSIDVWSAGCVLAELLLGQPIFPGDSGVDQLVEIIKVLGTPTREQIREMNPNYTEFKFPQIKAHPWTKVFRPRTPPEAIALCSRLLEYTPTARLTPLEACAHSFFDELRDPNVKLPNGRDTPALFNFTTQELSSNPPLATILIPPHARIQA

ULK1A = target: T10, ULK1A (Homo sapiens, UniProt O75385)
T10 construct: purchased in-house DSF kinase panel (SGC-style construct names; the trailing letter is the construct ID)
T10 sequence (O75385 1-283): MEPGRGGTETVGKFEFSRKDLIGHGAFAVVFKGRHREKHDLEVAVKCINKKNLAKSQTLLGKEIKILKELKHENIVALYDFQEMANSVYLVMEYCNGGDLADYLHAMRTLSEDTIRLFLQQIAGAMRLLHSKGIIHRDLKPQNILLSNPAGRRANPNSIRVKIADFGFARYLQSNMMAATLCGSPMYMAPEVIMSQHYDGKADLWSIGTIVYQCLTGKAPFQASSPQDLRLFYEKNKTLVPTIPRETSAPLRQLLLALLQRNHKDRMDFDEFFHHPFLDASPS

MAP2K1A = target: T11, MAP2K1A (Homo sapiens, UniProt Q02750)
T11 construct: purchased in-house DSF kinase panel (SGC-style construct names; the trailing letter is the construct ID)
T11 sequence (Q02750 68-361): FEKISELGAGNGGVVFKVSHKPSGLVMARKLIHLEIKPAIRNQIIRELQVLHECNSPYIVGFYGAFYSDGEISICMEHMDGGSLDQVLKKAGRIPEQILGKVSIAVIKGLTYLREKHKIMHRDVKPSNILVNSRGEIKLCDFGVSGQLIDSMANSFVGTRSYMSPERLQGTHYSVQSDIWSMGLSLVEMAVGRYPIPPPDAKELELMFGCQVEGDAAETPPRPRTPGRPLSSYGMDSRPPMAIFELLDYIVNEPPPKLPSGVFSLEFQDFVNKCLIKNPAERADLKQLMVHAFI

STK6A = target: T12, STK6A (Homo sapiens, UniProt O14965)
T12 construct: purchased in-house DSF kinase panel (SGC-style construct names; the trailing letter is the construct ID)
T12 sequence (O14965 122-403): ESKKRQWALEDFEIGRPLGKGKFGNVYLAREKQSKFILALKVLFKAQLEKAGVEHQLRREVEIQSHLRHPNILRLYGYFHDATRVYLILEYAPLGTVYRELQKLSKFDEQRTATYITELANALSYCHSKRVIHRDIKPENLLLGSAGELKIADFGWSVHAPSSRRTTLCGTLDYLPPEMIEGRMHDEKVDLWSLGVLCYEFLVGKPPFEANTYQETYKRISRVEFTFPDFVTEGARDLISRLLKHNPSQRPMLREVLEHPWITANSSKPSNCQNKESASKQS

GAKA = target: T13, GAKA (Homo sapiens, UniProt O14976)
T13 construct: purchased in-house DSF kinase panel (SGC-style construct names; the trailing letter is the construct ID)
T13 sequence (O14976 14-351): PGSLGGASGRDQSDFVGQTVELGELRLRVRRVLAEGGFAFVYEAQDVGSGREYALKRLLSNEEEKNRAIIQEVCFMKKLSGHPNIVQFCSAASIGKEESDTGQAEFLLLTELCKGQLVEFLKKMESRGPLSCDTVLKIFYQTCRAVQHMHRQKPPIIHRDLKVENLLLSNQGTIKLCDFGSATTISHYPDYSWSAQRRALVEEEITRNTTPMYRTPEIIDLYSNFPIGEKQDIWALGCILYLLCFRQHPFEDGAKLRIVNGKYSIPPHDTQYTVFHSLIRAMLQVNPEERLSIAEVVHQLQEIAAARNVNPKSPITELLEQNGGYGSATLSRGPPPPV

OSR1A = target: T14, OSR1A (Homo sapiens, UniProt O95747)
T14 construct: purchased in-house DSF kinase panel (SGC-style construct names; the trailing letter is the construct ID)
T14 sequence (O95747 17-291): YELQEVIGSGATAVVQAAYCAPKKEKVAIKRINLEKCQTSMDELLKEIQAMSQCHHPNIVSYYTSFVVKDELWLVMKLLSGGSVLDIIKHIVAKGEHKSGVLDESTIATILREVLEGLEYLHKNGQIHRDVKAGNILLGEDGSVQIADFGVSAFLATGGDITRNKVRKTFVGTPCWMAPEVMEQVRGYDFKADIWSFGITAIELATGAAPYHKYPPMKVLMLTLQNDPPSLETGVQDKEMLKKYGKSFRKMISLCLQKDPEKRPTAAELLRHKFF

CDKL1A = target: T15, CDKL1A (Homo sapiens, UniProt Q00532)
T15 construct: purchased in-house DSF kinase panel (SGC-style construct names; the trailing letter is the construct ID)
T15 sequence (Q00532 1-303): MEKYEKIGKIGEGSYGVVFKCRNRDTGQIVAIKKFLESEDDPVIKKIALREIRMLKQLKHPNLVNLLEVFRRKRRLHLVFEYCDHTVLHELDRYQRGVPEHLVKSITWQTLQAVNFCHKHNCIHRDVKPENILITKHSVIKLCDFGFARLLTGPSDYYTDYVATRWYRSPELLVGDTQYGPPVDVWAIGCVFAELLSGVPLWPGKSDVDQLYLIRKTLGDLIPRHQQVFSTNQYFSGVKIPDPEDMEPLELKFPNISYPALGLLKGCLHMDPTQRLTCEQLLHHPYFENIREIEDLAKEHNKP

T1 sequence (P15056 448-723): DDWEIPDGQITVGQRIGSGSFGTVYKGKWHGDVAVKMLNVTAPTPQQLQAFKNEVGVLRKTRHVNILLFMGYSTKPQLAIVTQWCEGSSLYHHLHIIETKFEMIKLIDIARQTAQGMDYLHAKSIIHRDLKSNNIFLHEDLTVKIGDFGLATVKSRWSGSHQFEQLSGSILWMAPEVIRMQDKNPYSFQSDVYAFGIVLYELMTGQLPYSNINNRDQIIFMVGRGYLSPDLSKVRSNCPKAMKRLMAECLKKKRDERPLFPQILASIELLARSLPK

| SMILES | ΔTm at 10 µM (BRAFA) [°C] | ΔTm at 10 µM (DAPK1 (DAPK1A)) [°C] | ΔTm at 10 µM (DYRK1AA) [°C] | ΔTm at 10 µM (DAPK3 (DAPK3A)) [°C] | ΔTm at 10 µM (CAMK4A) [°C] | ΔTm at 10 µM (PIM3A) [°C] | ΔTm at 10 µM (BMX (BMXA)) [°C] | ΔTm at 10 µM (PAK1A) [°C] | ΔTm at 10 µM (GSK3BB) [°C] | ΔTm at 10 µM (ULK1A) [°C] | ΔTm at 10 µM (MAP2K1A) [°C] | ΔTm at 10 µM (STK6A) [°C] | ΔTm at 10 µM (GAKA) [°C] | ΔTm at 10 µM (OSR1A) [°C] | ΔTm at 10 µM (CDKL1A) [°C] |
| --- | --- | --- | --- | --- | --- | --- | --- | --- | --- | --- | --- | --- | --- | --- | --- |
| COc1ccc(CNC(=O)Nc2ccc3cc2OCCOCCNc2ccn4ncc-3c4n2)cc1 [compound 31] | -0.5 | 0.3 | 0.3 | 1.2 | 1.1 | 4.9 | 1.4 | 0.5 | 1 | 0.6 | 0.6 | 8 | 6.2 | 1.3 | 0.6 |
| COc1ccc(CNC(=O)Nc2ccc3cc2OCCOCCNc2ccn4ncc-3c4n2)cc1F [compound 32] | -0.2 | 0.4 | 0.6 | 1.2 | 0.9 | -4.8 | 1.1 | 1 | 0.6 | 0.5 | 0.7 | 7.6 | 6 | 1.7 | 0.5 |
| COc1cc(CNC(=O)Nc2ccc3cc2OCCOCCNc2ccn4ncc-3c4n2)ccc1F [compound 33] | -0.6 | 0.5 | 0.9 | 2.1 | 1 | 5.1 | 0.3 | 0.5 | 1.6 | 0.2 | 0.7 | 9.9 | 6.2 | 1.5 | 0.5 |
| C[C@H](NC(=O)Nc1ccc2cc1OCCOCCNc1ccn3ncc-2c3n1)c1ccccc1 [compound 34] | -0.5 | 0.5 | -0.1 | 1.8 | 0.6 | 4.4 | 0.1 | 0.3 | 1.1 | -0.1 | 0.7 | 7.7 | 5.7 | 1.2 | 0.2 |
| CN1CCN(C(=O)Nc2ccc3cc2OCCOCCNc2ccn4ncc-3c4n2)CC1 [compound 35] | 1.2 | 0.7 | -1.5 | 2.8 | 0 | 1.6 | 0.3 | -0.1 | 1.7 | 0.2 | -0.2 | 2.4 | 3.8 | 0 | -0.2 |
